Laboratory results from US9340590B2 (priority 2011, dated 2016).
Like-named read-outs stand apart in the source and are kept apart here. Positions of bridges follow the written chain, without caps; N, C: chain ends. Non-standard residues stand in square brackets, D forms with d. Residues, ends and D or L forms follow the SMILES beside them. 1Nal = N[C@@H](Cc1cccc2ccccc12)C(=O)O

Experiments:
Assay in all cases: cell-based
hNav1.5 = hNav1.5 (Homo sapiens, UniProt Q14524)
hNav1.3 = hNav1.3 (Homo sapiens, UniProt Q9NY46); conditions: IonWorks Quattro, read-out: IWQ Use Nav1.3
hNav1.7 = hNav1.7 (Homo sapiens, UniProt Q15858); format: cell-based; conditions: IonWorks Quattro, read-out: IWQ Use Nav1.7
Chain of hNav1.7 (Q15858 whole entry, looked up): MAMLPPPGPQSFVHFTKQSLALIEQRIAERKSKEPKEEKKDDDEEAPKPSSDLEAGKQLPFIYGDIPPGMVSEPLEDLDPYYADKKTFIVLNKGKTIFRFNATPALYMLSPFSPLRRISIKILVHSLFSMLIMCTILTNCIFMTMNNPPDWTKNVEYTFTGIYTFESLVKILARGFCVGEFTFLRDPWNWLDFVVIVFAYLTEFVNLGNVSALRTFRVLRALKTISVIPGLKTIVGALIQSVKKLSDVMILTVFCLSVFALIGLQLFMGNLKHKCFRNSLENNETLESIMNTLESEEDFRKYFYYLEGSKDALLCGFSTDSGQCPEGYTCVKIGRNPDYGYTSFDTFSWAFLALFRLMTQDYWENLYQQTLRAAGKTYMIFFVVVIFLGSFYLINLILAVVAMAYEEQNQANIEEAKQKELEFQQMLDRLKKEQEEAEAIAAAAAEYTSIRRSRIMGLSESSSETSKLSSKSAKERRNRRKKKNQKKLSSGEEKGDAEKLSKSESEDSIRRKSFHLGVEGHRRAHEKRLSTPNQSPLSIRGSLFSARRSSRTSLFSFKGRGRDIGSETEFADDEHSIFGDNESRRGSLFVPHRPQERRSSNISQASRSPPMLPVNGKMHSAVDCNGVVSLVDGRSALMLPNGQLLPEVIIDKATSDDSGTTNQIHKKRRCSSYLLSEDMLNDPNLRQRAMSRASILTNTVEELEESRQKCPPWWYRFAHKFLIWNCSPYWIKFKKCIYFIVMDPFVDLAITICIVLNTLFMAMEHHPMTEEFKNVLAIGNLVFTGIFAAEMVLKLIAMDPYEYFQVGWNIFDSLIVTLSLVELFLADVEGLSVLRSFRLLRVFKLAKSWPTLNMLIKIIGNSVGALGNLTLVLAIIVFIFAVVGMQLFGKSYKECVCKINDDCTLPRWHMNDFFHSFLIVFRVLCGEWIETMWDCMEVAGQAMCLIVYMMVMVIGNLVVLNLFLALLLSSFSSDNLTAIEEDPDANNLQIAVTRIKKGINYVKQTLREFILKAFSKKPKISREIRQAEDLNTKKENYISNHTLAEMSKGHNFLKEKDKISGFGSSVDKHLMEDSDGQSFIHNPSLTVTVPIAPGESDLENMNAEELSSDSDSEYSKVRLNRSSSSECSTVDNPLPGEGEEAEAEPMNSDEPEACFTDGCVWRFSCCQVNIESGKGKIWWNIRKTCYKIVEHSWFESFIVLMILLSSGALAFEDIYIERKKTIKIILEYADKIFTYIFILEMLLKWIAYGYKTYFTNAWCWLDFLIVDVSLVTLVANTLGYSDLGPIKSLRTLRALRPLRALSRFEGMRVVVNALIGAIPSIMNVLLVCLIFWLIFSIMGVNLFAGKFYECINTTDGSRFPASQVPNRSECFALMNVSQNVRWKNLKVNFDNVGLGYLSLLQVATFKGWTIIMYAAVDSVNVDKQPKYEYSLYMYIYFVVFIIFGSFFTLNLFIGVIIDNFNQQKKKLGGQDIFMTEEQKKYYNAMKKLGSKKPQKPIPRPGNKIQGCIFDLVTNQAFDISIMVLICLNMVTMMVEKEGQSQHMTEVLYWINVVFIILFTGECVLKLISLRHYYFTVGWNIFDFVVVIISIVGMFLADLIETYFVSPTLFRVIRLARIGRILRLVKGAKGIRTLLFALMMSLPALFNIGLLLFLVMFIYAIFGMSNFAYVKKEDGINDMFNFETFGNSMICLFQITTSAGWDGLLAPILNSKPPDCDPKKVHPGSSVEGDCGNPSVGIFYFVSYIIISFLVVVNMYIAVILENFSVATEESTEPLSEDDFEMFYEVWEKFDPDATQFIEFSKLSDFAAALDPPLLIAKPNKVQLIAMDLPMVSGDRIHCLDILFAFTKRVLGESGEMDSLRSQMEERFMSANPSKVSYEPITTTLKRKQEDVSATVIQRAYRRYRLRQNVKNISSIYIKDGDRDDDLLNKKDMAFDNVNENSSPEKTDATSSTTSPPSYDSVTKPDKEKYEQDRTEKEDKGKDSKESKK

[1] = IonWorks Quattro, Use, read-out: IWQ Use Nav1.5
[2] = clamped to −110 mV, depolarized to −10 mV, 5 min after compound, n=2

Chain of hNav1.5 (Q14524 whole entry, looked up): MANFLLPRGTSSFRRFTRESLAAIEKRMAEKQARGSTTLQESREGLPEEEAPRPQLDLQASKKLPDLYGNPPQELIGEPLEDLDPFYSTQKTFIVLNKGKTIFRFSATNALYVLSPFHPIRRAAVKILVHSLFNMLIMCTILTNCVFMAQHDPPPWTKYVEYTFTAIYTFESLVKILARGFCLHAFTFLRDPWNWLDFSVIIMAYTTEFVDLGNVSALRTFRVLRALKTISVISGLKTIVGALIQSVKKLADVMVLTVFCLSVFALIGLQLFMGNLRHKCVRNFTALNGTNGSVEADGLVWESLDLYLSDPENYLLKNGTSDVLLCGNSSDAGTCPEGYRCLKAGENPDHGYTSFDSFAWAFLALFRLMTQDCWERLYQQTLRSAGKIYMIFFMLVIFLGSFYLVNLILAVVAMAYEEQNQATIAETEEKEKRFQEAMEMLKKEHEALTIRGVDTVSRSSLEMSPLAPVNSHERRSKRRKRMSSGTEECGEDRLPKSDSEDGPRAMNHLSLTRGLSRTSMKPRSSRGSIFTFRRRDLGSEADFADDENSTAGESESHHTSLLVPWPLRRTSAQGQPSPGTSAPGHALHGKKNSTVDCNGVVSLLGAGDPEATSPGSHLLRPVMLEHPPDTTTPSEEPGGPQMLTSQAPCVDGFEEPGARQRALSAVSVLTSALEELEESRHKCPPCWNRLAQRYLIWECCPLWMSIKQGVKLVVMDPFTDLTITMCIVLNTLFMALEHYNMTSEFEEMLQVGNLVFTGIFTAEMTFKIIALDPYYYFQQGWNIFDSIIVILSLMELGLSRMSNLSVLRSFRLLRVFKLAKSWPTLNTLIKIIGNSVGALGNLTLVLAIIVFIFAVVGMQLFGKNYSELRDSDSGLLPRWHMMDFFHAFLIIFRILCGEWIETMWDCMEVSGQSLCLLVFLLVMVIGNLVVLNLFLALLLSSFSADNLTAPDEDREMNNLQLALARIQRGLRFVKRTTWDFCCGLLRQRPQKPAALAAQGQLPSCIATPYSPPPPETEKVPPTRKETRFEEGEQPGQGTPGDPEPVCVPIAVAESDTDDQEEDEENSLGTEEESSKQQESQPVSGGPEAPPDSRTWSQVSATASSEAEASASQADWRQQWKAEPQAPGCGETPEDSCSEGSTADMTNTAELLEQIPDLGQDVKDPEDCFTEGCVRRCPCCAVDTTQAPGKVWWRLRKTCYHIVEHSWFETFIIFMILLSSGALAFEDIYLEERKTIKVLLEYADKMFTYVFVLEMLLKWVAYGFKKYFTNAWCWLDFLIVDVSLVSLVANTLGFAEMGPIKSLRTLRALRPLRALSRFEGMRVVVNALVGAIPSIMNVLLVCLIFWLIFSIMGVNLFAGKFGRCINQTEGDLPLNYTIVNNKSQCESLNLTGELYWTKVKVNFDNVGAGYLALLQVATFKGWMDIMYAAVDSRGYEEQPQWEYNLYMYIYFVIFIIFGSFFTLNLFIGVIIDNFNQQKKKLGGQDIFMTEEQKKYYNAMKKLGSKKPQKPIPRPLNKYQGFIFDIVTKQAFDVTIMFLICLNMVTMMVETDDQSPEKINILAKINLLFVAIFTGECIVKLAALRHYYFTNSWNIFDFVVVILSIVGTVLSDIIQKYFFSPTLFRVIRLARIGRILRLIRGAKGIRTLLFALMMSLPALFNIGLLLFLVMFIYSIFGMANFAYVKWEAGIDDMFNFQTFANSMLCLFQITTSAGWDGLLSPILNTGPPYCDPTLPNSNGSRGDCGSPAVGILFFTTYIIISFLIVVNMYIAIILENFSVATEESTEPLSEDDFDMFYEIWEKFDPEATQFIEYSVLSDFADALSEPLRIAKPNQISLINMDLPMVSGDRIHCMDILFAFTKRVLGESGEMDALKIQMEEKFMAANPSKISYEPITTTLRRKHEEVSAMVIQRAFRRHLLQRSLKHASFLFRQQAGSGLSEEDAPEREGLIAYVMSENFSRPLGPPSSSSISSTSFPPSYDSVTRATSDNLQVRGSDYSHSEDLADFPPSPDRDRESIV

SMILES: CC[C@H](C)[C@@H]1NC(=O)[C@@H]2CSSC[C@@H]3NC(=O)[C@H](CC(N)=O)NC(=O)[C@H](CC(C)C)NC(=O)[C@H](CC(N)=O)NC(=O)[C@@H]4CCCN4C(=O)[C@H](CCCNC(=N)N)NC(=O)[C@H](CSSC[C@H](NC(=O)[C@@H](N)CC(=O)O)C(=O)N[C@@H](CC(C)C)C(=O)NCC(=O)N[C@@H](Cc4ccccc4)C(=O)N[C@@H](CCSC)C(=O)N[C@@H](CCCNC(=N)N)C(=O)N[C@@H](CCCCN)C(=O)N2)NC(=O)[C@H](CSSC[C@@H](C(=O)N[C@@H](CCCCN)C(=O)N[C@@H](Cc2ccc(O)cc2)C(=O)N[C@H](C(=O)N[C@@H](Cc2ccccc2)C(N)=O)C(C)C)NC(=O)[C@H](Cc2c[nH]c4ccccc24)NC(=O)[C@H](CCCCN)NC(=O)[C@H](Cc2c[nH]cn2)NC(=O)[C@H]([C@@H](C)O)NC(=O)[C@H](CCCNC(=N)N)NC(=O)[C@H](CO)NC3=O)NC(=O)[C@H](CCCCN)NC(=O)[C@H](CC(=O)O)NC(=O)[C@H](CC(N)=O)NC(=O)[C@H](CC(=O)O)NC(=O)[C@@H]2CCCN2C1=O [compound 325] (H-DCLGFMRKCIPDNDKCCRPNLNCSRTHKWCKYVF-NH2; disulfide 2-17, 9-23, 16-30)
- IC50 (hNav1.5; [1]): 8.07 µM
- IC50 (hNav1.3; Use): 90 nM
- IC50 (hNav1.7; Use): 240 nM

SMILES: CC[C@H](C)[C@@H]1NC(=O)[C@@H]2CSSC[C@@H]3NC(=O)[C@H](C(C)C)NC(=O)[C@H](CC(C)C)NC(=O)[C@H](CC(N)=O)NC(=O)[C@@H]4CCCN4C(=O)[C@H](CCCNC(=N)N)NC(=O)[C@H](CSSC[C@H](NC(=O)[C@@H](N)CC(=O)O)C(=O)N[C@@H](CC(C)C)C(=O)NCC(=O)N[C@@H](Cc4ccc(C(F)(F)F)cc4)C(=O)N[C@@H](CC(C)C)C(=O)N[C@@H](CCCNC(=N)N)C(=O)N[C@@H](CCCCN)C(=O)N2)NC(=O)[C@H](CSSC[C@@H](C(=O)N[C@@H](CCCCN)C(=O)N[C@@H](Cc2ccc(O)cc2)C(=O)N[C@H](C(=O)N[C@@H](Cc2ccccc2)C(N)=O)C(C)C)NC(=O)[C@H](Cc2c[nH]c4ccccc24)NC(=O)[C@H](CCCCN)NC(=O)[C@H](Cc2c[nH]cn2)NC(=O)[C@H]([C@@H](C)O)NC(=O)[C@H](CCCNC(=N)N)NC(=O)[C@H](CO)NC3=O)NC(=O)[C@H](CCCCN)NC(=O)[C@H](CC(=O)O)NC(=O)[C@H](CC(N)=O)NC(=O)[C@H](CC(=O)O)NC(=O)[C@@H]2CCCN2C1=O [compound 668]
- IC50 (hNav1.5; IonWorks Quattro, use-dependent protocol, hNav1.5, read-out: IWQ Use Nav1.5): 4.4 µM
- IC50 (hNav1.3; use-dependent protocol, hNav1.3): 11 nM
- IC50 (hNav1.7; use-dependent protocol, hNav1.7): 180 nM

SMILES: CC[C@H](C)[C@@H]1NC(=O)[C@@H]2CSSC[C@@H]3NC(=O)[C@H](C(C)C)NC(=O)[C@H](CC(C)C)NC(=O)[C@H](CC(N)=O)NC(=O)[C@@H]4CCCN4C(=O)[C@H](CCCNC(=N)N)NC(=O)[C@H](CSSC[C@H](NC(=O)[C@@H](N)CC(=O)O)C(=O)N[C@@H](CC(C)C)C(=O)NCC(=O)N[C@@H]([C@@H](C)O)C(=O)N[C@@H](CCSC)C(=O)N[C@@H](CCCNC(=N)N)C(=O)N[C@@H](CCCCN)C(=O)N2)NC(=O)[C@H](CSSC[C@@H](C(=O)N[C@@H](CCCCN)C(=O)N[C@@H](Cc2ccc(O)cc2)C(=O)N[C@H](C(=O)N[C@@H](Cc2ccccc2)C(N)=O)C(C)C)NC(=O)[C@H](Cc2c[nH]c4ccccc24)NC(=O)[C@H](CCCCN)NC(=O)[C@H](Cc2c[nH]cn2)NC(=O)[C@H]([C@@H](C)O)NC(=O)[C@H](CCCNC(=N)N)NC(=O)[C@H](CO)NC3=O)NC(=O)[C@H](CCCCN)NC(=O)[C@H](CC(=O)O)NC(=O)[C@H](CC(N)=O)NC(=O)[C@H](CC(=O)O)NC(=O)[C@@H]2CCCN2C1=O [SEQ ID NO: 270] (H-DCLGTMRKCIPDNDKCCRPNLVCSRTHKWCKYVF-NH2; disulfide 2-17, 9-23, 16-30)
- IC50 (hNav1.5; IonWorks Quattro, clamped to −110 mV, depolarized to −10 mV, 5 min after compound, n=2, read-out: IWQ Use Nav1.5): 15.2 µM
- IC50 (hNav1.3; [2]): 2190 nM
- IC50 (hNav1.7; [2]): 1220 nM

SMILES: CC[C@H](C)[C@@H]1NC(=O)[C@@H]2CSSC[C@@H]3NC(=O)[C@H](C(C)C)NC(=O)[C@H](CC(C)C)NC(=O)[C@H](CC(N)=O)NC(=O)[C@@H]4CCCN4C(=O)[C@H](CCCNC(=N)N)NC(=O)[C@H](CSSC[C@H](NC(=O)[C@@H](N)CC(=O)O)C(=O)N[C@@H](CC(C)C)C(=O)NCC(=O)N[C@@H](Cc4ccccc4)C(=O)N[C@@H](CCSC)C(=O)N[C@@H](CCCNC(=N)N)C(=O)N[C@@H](CCCCN)C(=O)N2)NC(=O)[C@H](CSSC[C@@H](C(=O)N[C@@H](CCCCN)C(=O)N[C@@H](Cc2ccc(O)cc2)C(=O)N[C@H](C(=O)N[C@@H](Cc2ccccc2)C(N)=O)C(C)C)NC(=O)[C@H](Cc2c[nH]c4ccccc24)NC(=O)[C@H](CCCCN)NC(=O)[C@H](Cc2cnc[nH]2)NC(=O)[C@H]([C@@H](C)O)NC(=O)[C@H](CCCNC(=N)N)NC(=O)[C@H](CCC(=O)O)NC3=O)NC(=O)[C@H](CCCCN)NC(=O)[C@H](CC(=O)O)NC(=O)[C@H](CC(N)=O)NC(=O)[C@H](CC(=O)O)NC(=O)[C@@H]2CCCN2C1=O [compound 150] (H-DCLGFMRKCIPDNDKCCRPNLVCERTHKWCKYVF-NH2; disulfide 2-17, 9-23, 16-30)
- IC50 (hNav1.5; [1]): 11.5 µM
- IC50 (hNav1.3; Use): 6780 nM
- IC50 (hNav1.7; Use): 6120 nM

SMILES: CC[C@H](C)[C@@H]1NC(=O)[C@@H]2CSSC[C@@H]3NC(=O)[C@H](C(C)C)NC(=O)[C@H](CC(C)C)NC(=O)[C@H](Cc4ccccc4)NC(=O)[C@@H]4CCCN4C(=O)[C@H](CCCNC(=N)N)NC(=O)[C@H](CSSC[C@H](NC(=O)[C@@H](N)CC(=O)O)C(=O)N[C@@H](CC(C)C)C(=O)NCC(=O)N[C@@H](Cc4ccccc4)C(=O)N[C@@H](CCSC)C(=O)N[C@@H](CCCNC(=N)N)C(=O)N[C@@H](CCCCN)C(=O)N2)NC(=O)[C@H](CSSC[C@@H](C(=O)N[C@@H](CCCCN)C(=O)N[C@@H](Cc2ccc(O)cc2)C(=O)N[C@H](C(=O)N[C@@H](Cc2ccccc2)C(N)=O)C(C)C)NC(=O)[C@H](Cc2c[nH]c4ccccc24)NC(=O)[C@H](CCCCN)NC(=O)[C@H](Cc2c[nH]cn2)NC(=O)[C@H]([C@@H](C)O)NC(=O)[C@H](CCCNC(=N)N)NC(=O)[C@H](CO)NC3=O)NC(=O)[C@H](CCCCN)NC(=O)[C@H](CC(=O)O)NC(=O)[C@H](CC(N)=O)NC(=O)[C@H](CC(=O)O)NC(=O)[C@@H]2CCCN2C1=O [compound 199] (H-DCLGFMRKCIPDNDKCCRPFLVCSRTHKWCKYVF-NH2; disulfide 2-17, 9-23, 16-30)
- IC50 (hNav1.5; [1]): 10.8 µM
- IC50 (hNav1.3; Use): 67 nM
- IC50 (hNav1.7; Use): 154 nM

SMILES: CC[C@H](C)[C@@H]1NC(=O)[C@@H]2CSSC[C@@H]3NC(=O)[C@H](C(C)C)NC(=O)[C@H](CC(C)C)NC(=O)[C@H](CC(N)=O)NC(=O)[C@@H]4CCCN4C(=O)[C@H](CCCNC(=N)N)NC(=O)[C@H](CSSC[C@H](NC(=O)[C@@H](N)CC(=O)O)C(=O)N[C@@H](CC(C)C)C(=O)NCC(=O)N[C@@H](Cc4ccccc4)C(=O)N[C@@H](CCSC)C(=O)N[C@@H](CCCNC(=N)N)C(=O)N[C@@H](CCCCN)C(=O)N2)NC(=O)[C@H](CSSC[C@@H](C(=O)N[C@@H](CCCCN)C(=O)N[C@@H](Cc2c[nH]c4ccccc24)C(=O)N[C@@H](Cc2c[nH]c4ccccc24)C(=O)N[C@@H](Cc2ccccc2)C(N)=O)NC(=O)[C@H](Cc2c[nH]c4ccccc24)NC(=O)[C@H](CCCCN)NC(=O)[C@H](Cc2c[nH]cn2)NC(=O)[C@H]([C@@H](C)O)NC(=O)[C@H](CCCNC(=N)N)NC(=O)[C@H](CO)NC3=O)NC(=O)[C@H](CCCCN)NC(=O)[C@H](CC(=O)O)NC(=O)[C@H](CC(N)=O)NC(=O)[C@H](CC(=O)O)NC(=O)[C@@H]2CCCN2C1=O [compound 450] (H-DCLGFMRKCIPDNDKCCRPNLVCSRTHKWCKWWF-NH2; disulfide 2-17, 9-23, 16-30)
- IC50 (hNav1.5; IonWorks Quattro, use-dependent block, hNav1.5, read-out: IWQ Use Nav1.5): 11.5 µM
- IC50 (hNav1.3; use-dependent block, hNav1.3): 30 nM
- IC50 (hNav1.7; use-dependent block, hNav1.7): 50 nM

SMILES: CC[C@H](C)[C@@H]1NC(=O)[C@@H]2CSSC[C@@H]3NC(=O)[C@H](C(C)C)NC(=O)[C@H](CC(C)C)NC(=O)[C@H](CC(N)=O)NC(=O)[C@@H]4CCCN4C(=O)[C@H](CCCNC(=N)N)NC(=O)[C@H](CSSC[C@H](NC(=O)[C@@H](N)CC(=O)O)C(=O)N[C@@H](CC(C)C)C(=O)NCC(=O)N[C@@H](C)C(=O)N[C@@H](CCSC)C(=O)N[C@@H](CCCNC(=N)N)C(=O)N[C@@H](CCCCN)C(=O)N2)NC(=O)[C@H](CSSC[C@@H](C(=O)N[C@@H](CCCCN)C(=O)N[C@@H](Cc2ccc(O)cc2)C(=O)N[C@@H](Cc2cccc4ccccc24)C(=O)N[C@@H](Cc2ccccc2)C(N)=O)NC(=O)[C@H](Cc2c[nH]c4ccccc24)NC(=O)[C@H](CCCCN)NC(=O)[C@H](Cc2c[nH]cn2)NC(=O)[C@H]([C@@H](C)O)NC(=O)[C@H](CCCNC(=N)N)NC(=O)[C@H](CO)NC3=O)NC(=O)[C@H](CCCCN)NC(=O)[C@H](CC(=O)O)NC(=O)[C@H](CC(N)=O)NC(=O)[C@H](CC(=O)O)NC(=O)[C@@H]2CCCN2C1=O [compound 258] (H-DCLGAMRKCIPDNDKCCRPNLVCSRTHKWCKY[1Nal]F-NH2; disulfide 2-17, 9-23, 16-30)
- IC50 (hNav1.5; IWQ Use Nav1.5 (μM)): 5 µM
- IC50 (hNav1.3; use-dependent block, hNav1.3): 800 nM
- IC50 (hNav1.7; use-dependent block, hNav1.7): 380 nM
